Patent US20110166112A1, “METHOD FOR STIMULATING PLATELET PRODUCTION” (Eisai, Inc., priority 2009, published 2011)

Test system: subjects with chronic ITP
Experiment: Combined 28-day and 6-month rollover studies of E5501: safety (TEAEs, serious TEAEs, thromboembolic events, neoplasms, liver toxicity, discontinuations)
Assay type: in vivo, human
Settings: N=22
Source text: Primary Endpoint: The primary endpoint was to assess the safety and tolerability to E5501, including AEs and clinical laboratory parameters, over the 6 additional months of treatment.
In this way, safety data reflect each subject's complete duration of exposure to E5501 starting with lead-in the previous study and continuing into the current study.
Following Protocol Amendment 4, the current study contained a flexible dose regimen; therefore, this study was considered to have an open-label, uncontrolled, single-arm design. […] This was the method used to assess safety. • Grouping method B was based on both treatment received and day 28 platelet response to study drug in Study the previous study. This was the method used for the analysis of efficacy for the FAS and the SE population.
Overall Adverse Events. […] The primary focus is on summary statistics for the entire safety population and provides an overall safety profile for E5501. The summary statistics for each group, e.g., lower ⅓, middle ⅓ and upper ⅓ average daily dose levels, is secondary and provides further safety information across the 3 dose levels.

Which results are given for `O=C(Nc1nc(-c2cc(Cl)cs2)c(N2CCN(C3CCCCC3)CC2)s1)c1cnc(N2CCC(C(=O)O)CC2)c(Cl)c1` [E5501, 1-(3-chloro-5-{[4-(4-chlorothiophen-2-yl)-5-(4-cyclohexylpiperazin-1-yl)thiazol-2-yl]carbamoyl}pyridine-2-yl)piperidine-4-carboxylic acid]?
Serious TEAE, n of subjects (Lower ⅓ dose (2.5-<8.85 mg)): 1; Serious treatment-related TEAEs, % of subjects (Lower ⅓ dose (2.5-<8.85 mg)): (4.5) %; Serious treatment-related TEAEs, n of subjects (Lower ⅓ dose (2.5-<8.85 mg)): 1; Severe (grade 3-4) TEAEs, % of subjects (Lower ⅓ dose (2.5-<8.85 mg)): (18.2) %; Severe (grade 3-4) TEAEs, n of subjects (Lower ⅓ dose (2.5-<8.85 mg)): 4; Somnolence, n of subjects (Lower ⅓ dose (2.5-<8.85 mg)): 0; Suspected drug-related AEs, % of subjects (Lower ⅓ dose (2.5-<8.85 mg)): (59.1) %; Suspected drug-related AEs, n of subjects (Lower ⅓ dose (2.5-<8.85 mg)): 13; Upper respiratory tract infection, % of subjects (Lower ⅓ dose (2.5-<8.85 mg)): (9.1) %; Upper respiratory tract infection, n of subjects (Lower ⅓ dose (2.5-<8.85 mg)): 2; Vomiting, % of subjects (Lower ⅓ dose (2.5-<8.85 mg)): (4.5) %; Vomiting, n of subjects (Lower ⅓ dose (2.5-<8.85 mg)): 1; Withdrawal due to TEAE, % of subjects (Lower ⅓ dose (2.5-<8.85 mg)): (13.6) %; Withdrawal due to TEAE, n of subjects (Lower ⅓ dose (2.5-<8.85 mg)): 3; Abdominal pain upper, n of subjects (Middle ⅓ dose (≧8.85-<13.5 mg)): 0; Any Serious TEAE, n (%) of subjects (Middle ⅓ dose (≧8.85-<13.5 mg)): 3 (13.6) n (%); Any TEAE, % of subjects (Middle ⅓ dose (≧8.85-<13.5 mg)): (100.0) %; Any TEAE, n of subjects (Middle ⅓ dose (≧8.85-<13.5 mg)): 22; Arthralgia, % of subjects (Middle ⅓ dose (≧8.85-<13.5 mg)): (18.2) %; Arthralgia, n of subjects (Middle ⅓ dose (≧8.85-<13.5 mg)): 4; Asthenia, n of subjects (Middle ⅓ dose (≧8.85-<13.5 mg)): 0; Back pain, % of subjects (Middle ⅓ dose (≧8.85-<13.5 mg)): (9.1) %; Back pain, n of subjects (Middle ⅓ dose (≧8.85-<13.5 mg)): 2; Constipation, % of subjects (Middle ⅓ dose (≧8.85-<13.5 mg)): (13.6) %; Constipation, n of subjects (Middle ⅓ dose (≧8.85-<13.5 mg)): 3; Contusion, % of subjects (Middle ⅓ dose (≧8.85-<13.5 mg)): (13.6) %; Contusion, n of subjects (Middle ⅓ dose (≧8.85-<13.5 mg)): 3; Cough, n of subjects (Middle ⅓ dose (≧8.85-<13.5 mg)): 0; Deaths, n of subjects (Middle ⅓ dose (≧8.85-<13.5 mg)): 0; Diarrhoea, % of subjects (Middle ⅓ dose (≧8.85-<13.5 mg)): (4.5) %; Diarrhoea, n of subjects (Middle ⅓ dose (≧8.85-<13.5 mg)): 1; Dizziness, % of subjects (Middle ⅓ dose (≧8.85-<13.5 mg)): (4.5) %; Dizziness, n of subjects (Middle ⅓ dose (≧8.85-<13.5 mg)): 1; Dose interruption due to TEAE, % of subjects (Middle ⅓ dose (≧8.85-<13.5 mg)): (13.6) %; Dose interruption due to TEAE, n of subjects (Middle ⅓ dose (≧8.85-<13.5 mg)): 3; Dyspnoea, % of subjects (Middle ⅓ dose (≧8.85-<13.5 mg)): (13.6) %; Dyspnoea, n of subjects (Middle ⅓ dose (≧8.85-<13.5 mg)): 3; Ecchymosis, % of subjects (Middle ⅓ dose (≧8.85-<13.5 mg)): (9.1) %; Ecchymosis, n of subjects (Middle ⅓ dose (≧8.85-<13.5 mg)): 2; Epistaxis, % of subjects (Middle ⅓ dose (≧8.85-<13.5 mg)): (13.6) %; Epistaxis, n of subjects (Middle ⅓ dose (≧8.85-<13.5 mg)): 3; Fatigue, % of subjects (Middle ⅓ dose (≧8.85-<13.5 mg)): (31.8) %; Fatigue, n of subjects (Middle ⅓ dose (≧8.85-<13.5 mg)): 7; Gingival bleeding, % of subjects (Middle ⅓ dose (≧8.85-<13.5 mg)): (9.1) %; Gingival bleeding, n of subjects (Middle ⅓ dose (≧8.85-<13.5 mg)): 2; Headache, % of subjects (Middle ⅓ dose (≧8.85-<13.5 mg)): (40.9) %; Headache, n of subjects (Middle ⅓ dose (≧8.85-<13.5 mg)): 9; Insomnia, % of subjects (Middle ⅓ dose (≧8.85-<13.5 mg)): (13.6) %; Insomnia, n of subjects (Middle ⅓ dose (≧8.85-<13.5 mg)): 3; Migraine, % of subjects (Middle ⅓ dose (≧8.85-<13.5 mg)): (4.5) %; Migraine, n of subjects (Middle ⅓ dose (≧8.85-<13.5 mg)): 1; Mouth haemorrhage, n of subjects (Middle ⅓ dose (≧8.85-<13.5 mg)): 0; Nausea, % of subjects (Middle ⅓ dose (≧8.85-<13.5 mg)): (9.1) %; Nausea, n of subjects (Middle ⅓ dose (≧8.85-<13.5 mg)): 2; Pain in extremity, % of subjects (Middle ⅓ dose (≧8.85-<13.5 mg)): (9.1) %; Pain in extremity, n of subjects (Middle ⅓ dose (≧8.85-<13.5 mg)): 2; Petechiae, % of subjects (Middle ⅓ dose (≧8.85-<13.5 mg)): (4.5) %; Petechiae, n of subjects (Middle ⅓ dose (≧8.85-<13.5 mg)): 1; Platelet count increased, % of subjects (Middle ⅓ dose (≧8.85-<13.5 mg)): (9.1) %; Platelet count increased, n of subjects (Middle ⅓ dose (≧8.85-<13.5 mg)): 2; Serious TEAE Cerebrovascular accident, n (%) of subjects (Middle ⅓ dose (≧8.85-<13.5 mg)): 0 n (%); Serious TEAE Chest pain, n (%) of subjects (Middle ⅓ dose (≧8.85-<13.5 mg)): 0 n (%); Serious TEAE Diarrhoea, n (%) of subjects (Middle ⅓ dose (≧8.85-<13.5 mg)): 0 n (%); Serious TEAE Haemorrhage intracranial, n (%) of subjects (Middle ⅓ dose (≧8.85-<13.5 mg)): 1 (4.5) n (%); Serious TEAE Lethargy, n (%) of subjects (Middle ⅓ dose (≧8.85-<13.5 mg)): 1 (4.5) n (%); Serious TEAE Mitral valve incompetence, n (%) of subjects (Middle ⅓ dose (≧8.85-<13.5 mg)): 0 n (%); Serious TEAE Myocardial infarction, n (%) of subjects (Middle ⅓ dose (≧8.85-<13.5 mg)): 1 (4.5) n (%); Serious TEAE Nausea, n (%) of subjects (Middle ⅓ dose (≧8.85-<13.5 mg)): 1 (4.5) n (%); Serious TEAE Pelvic venous thrombosis, n (%) of subjects (Middle ⅓ dose (≧8.85-<13.5 mg)): 1 (4.5) n (%); Serious TEAE Platelet count decreased, n (%) of subjects (Middle ⅓ dose (≧8.85-<13.5 mg)): 1 (4.5) n (%); Serious TEAE Pneumonia, n (%) of subjects (Middle ⅓ dose (≧8.85-<13.5 mg)): 1 (4.5) n (%); Serious TEAE Pyrexia, n (%) of subjects (Middle ⅓ dose (≧8.85-<13.5 mg)): 0 n (%); Serious TEAE Thrombocytopenia, n (%) of subjects (Middle ⅓ dose (≧8.85-<13.5 mg)): 0 n (%); Serious TEAE Transient ischaemic attack, n (%) of subjects (Middle ⅓ dose (≧8.85-<13.5 mg)): 1 (4.5) n (%); Serious TEAE Vomiting, n (%) of subjects (Middle ⅓ dose (≧8.85-<13.5 mg)): 1 (4.5) n (%); Serious TEAE, % of subjects (Middle ⅓ dose (≧8.85-<13.5 mg)): (13.6) %; Serious TEAE, SOC Blood and lymphatic system disorders, n (%) of subjects (Middle ⅓ dose (≧8.85-<13.5 mg)): 0 n (%); Serious TEAE, SOC Cardiac disorders, n (%) of subjects (Middle ⅓ dose (≧8.85-<13.5 mg)): 1 (4.5) n (%); Serious TEAE, SOC Gastrointestinal disorders, n (%) of subjects (Middle ⅓ dose (≧8.85-<13.5 mg)): 1 (4.5) n (%); Serious TEAE, SOC General disorders and administration site conditions, n (%) of subjects (Middle ⅓ dose (≧8.85-<13.5 mg)): 0 n (%); Serious TEAE, SOC Infections and infestations, n (%) of subjects (Middle ⅓ dose (≧8.85-<13.5 mg)): 1 (4.5) n (%); Serious TEAE, SOC Investigations, n (%) of subjects (Middle ⅓ dose (≧8.85-<13.5 mg)): 1 (4.5) n (%); Serious TEAE, SOC Nervous system disorders, n (%) of subjects (Middle ⅓ dose (≧8.85-<13.5 mg)): 2 (9.1) n (%); Serious TEAE, SOC Vascular disorders, n (%) of subjects (Middle ⅓ dose (≧8.85-<13.5 mg)): 1 (4.5) n (%); Serious TEAE, n of subjects (Middle ⅓ dose (≧8.85-<13.5 mg)): 3; Serious treatment-related TEAEs, % of subjects (Middle ⅓ dose (≧8.85-<13.5 mg)): (4.5) %; Serious treatment-related TEAEs, n of subjects (Middle ⅓ dose (≧8.85-<13.5 mg)): 1; Severe (grade 3-4) TEAEs, % of subjects (Middle ⅓ dose (≧8.85-<13.5 mg)): (22.7) %; Severe (grade 3-4) TEAEs, n of subjects (Middle ⅓ dose (≧8.85-<13.5 mg)): 5; Somnolence, n of subjects (Middle ⅓ dose (≧8.85-<13.5 mg)): 0; Suspected drug-related AEs, % of subjects (Middle ⅓ dose (≧8.85-<13.5 mg)): (68.2) %; Suspected drug-related AEs, n of subjects (Middle ⅓ dose (≧8.85-<13.5 mg)): 15; Upper respiratory tract infection, % of subjects (Middle ⅓ dose (≧8.85-<13.5 mg)): (4.5) %; Upper respiratory tract infection, n of subjects (Middle ⅓ dose (≧8.85-<13.5 mg)): 1
